The record followed here is PMC8927147, “Global profiling of regulatory elements in the histone benzoylation pathway” (Nature Communications, 2022).

Each structure is given as a SMILES string. Substitutions are numbered along the chain they refer to. Peptide text beside a SMILES is read from it. * marks the point of attachment. Bz = O=C(c1ccccc1)*

In assay [1] the test system is Gcn5-Ada2. Nature of the assay: DTNB acylation activity assay of Gcn5-Ada2. The class given is biochemical, Saccharomyces cerevisiae. The conditions noted are these: 250 μM H3 1-18 peptide, pH 7.8, 30 °C. The protocol: Kinetic measurements comparing rates of acetylation and benzoylation were performed using the 5,5′-dithiobis-(2-bitrobenzoic acid) (DTNB, D218200-1G, Sigma) assay. Reactions contained 2 μM Gcn5-Ada2, 250 μM H3 peptide amino acids 1-18 ([…]), 100 mM HEPES pH7.8, 50 mM NaCl and 500 μM acetyl-CoA or benzoyl-CoA. Each reaction was incubated for 5 min at 30 °C before adding acyl-CoA to start the reaction. The reaction was quenched at the indicated time points by adding two volumes of freshly prepared quenching buffer (3.2 M guanidine-HCl, 100 mM sodium phosphate pH 6.8). The samples were added to one volume of 4 mM DTNB dissolved in 100 mM sodium phosphate (pH 6.8) and transferred to a 384-well polystyrene clear-bottom plate (CORNING, 3680), and the absorbance at 412 nm was measured in a Bio-TEK plate reader. Absorbances were converted to concentrations using a standard curve generated by HSCOA standards. The acetylation reaction was quenched after 0.5, 1.0, 1.5, 2.0, and 2.5 min, and the benzoylation reaction was quenched after 1, 2, 3, and 4 h. All acylation rates were corrected by subtracting the rate of acyl-CoA consumption by Gcn5-Ada2 in the absence of peptide. The acetylation assays were performed in triplicate, but the benzoylation assay was not repeated due to the limitation of materials.

The target of assay [2] is T1, Sth1BD (Saccharomyces cerevisiae, UniProt P32597).
T1 construct: Sth1BD (residues 1248-1359); 6*His-Sumo (N, cleaved yes); made in house; host or cells: Escherichia coli Rosetta
T1 sequence (P32597 1248-1359): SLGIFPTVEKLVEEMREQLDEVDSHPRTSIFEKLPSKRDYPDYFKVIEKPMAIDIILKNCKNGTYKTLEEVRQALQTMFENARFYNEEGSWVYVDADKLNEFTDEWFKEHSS
Nature of the assay: ITC binding of H3 peptides to Sth1 bromodomain. The protocol: (§1) ITC titrations were performed using a MicroCal ITC200 system (GE Healthcare, USA) at 20 °C. For ITC measurement, peptides and proteins were dialyzed into the same buffer (25 mM Tris-HCl, pH 8.0, 150 mM NaCl). […] For reader-related ITC experiments, peptides at 2.0 mM in the syringe were titrated into Taf14YEATS/Sas5YEATS/Sth1BD at 0.1–0.2 mM in the sample cell. Each titration consisted of 20 successive injections. The titration curves were processed using the Origin 7.0 software program (OriginLab) according to the one-binding-site fitting model. Each titration was repeated twice, and one representative plot was shown in the paper. The dissociation constants (Kd), enthalpy changes (ΔH), and fitting errors were derived from one representative ITC plot.

For assay [3], the target named is T2, Sth1BD A1329C (Saccharomyces cerevisiae, UniProt P32597, A1329C).
T2 construct: Sth1BD (residues 1248-1359); 6*His-Sumo (N, cleaved yes); made in house; host or cells: Escherichia coli Rosetta
T2 sequence (P32597 1248-1359 A1329C): T1 sequence (P32597 1248-1359) with A82C
Nature of the assay: ITC binding of H3K14bz peptide to Sth1BD A1329C mutant. The procedure: as §1

Assay [4] has as its target T3, Sas5YEATS (Saccharomyces cerevisiae, UniProt Q99314).
T3 construct: 6*His-Sumo (N, cleaved yes); made in house; host or cells: Escherichia coli Rosetta
T3 sequence (Q99314 2-139): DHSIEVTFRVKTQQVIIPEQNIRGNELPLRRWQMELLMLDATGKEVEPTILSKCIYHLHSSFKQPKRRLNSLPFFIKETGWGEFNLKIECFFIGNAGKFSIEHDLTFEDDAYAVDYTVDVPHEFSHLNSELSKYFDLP
Nature of the assay: ITC binding of H3 peptides to Sas5YEATS.

In assay [5] the test system is BY4742 cells. Nature of the assay: Western blot of histone Kbz and Kac levels in yeast treated with sodium benzoate. Type of assay: cell-based, Saccharomyces cerevisiae. The conditions noted are these: BY4742 cells in YPD at log phase, sodium benzoate added for 6 h, histones extracted; pan anti-Kbz and anti-Kac. The source says:
Anti-Kbz (PTM Biolabs Inc., PTM-762, 1:1000, Lot^# 1314381619I926), anti-Kac (Cell signal, 9441 S, 1:1000, Lot^# 14), anti-H3N (Active motif, 39763, 1:700, Lot^# 20418023), anti-H4 (Active motif, 61521, 1:3000, Lot^# 31416005), and anti-tubulin (Sigma, T6199, 1:3000, Lot^# 048M4751V) antibodies were used in this study. The HRP secondary antibody and the fluorescent secondary antibodies were used: Peroxidase AffiniPure Goat Anti-Mouse IgG (Jackson ImmunoResearch, 1:5000, 115-035-003), Peroxidase AffiniPure Goat Anti-Rabbit IgG (Jackson ImmunoResearch, 1:5000, 111-035-003), IRDye 800CW goat anti-rabbit IgG (LI-COR P/N 923-32211, 1:5000, Lot^# D00304-15) and IRDye 680RD goat anti-Mouse IgG (LI-COR P/N 926-68070, 1:10000, Lot^# D01014-04). The fluorescent western blots were detected on Odyssey CLx (LI-COR) and quantified by Image Studio (ver. 5.2.5).
Typically, 100 mg yeast cell pellets were harvested and suspended in 1 ml buffer A (1 M sorbitol, 50 mM Tris-HCl, pH 7.5, 5 mM MgCl2, 5 mM 2-mercaptoethanol) and centrifuged for 5 min at 900 g. Then, the pellet was resuspended in 1 ml buffer A with 60 μl zymolyase. […] The concentration of histones was measured by a BCA Protein Assay Kit (TIANGEN, PA115-01, China). The samples were analyzed by western blot or by mass spectrometry.
For orientation: Immunoblotting shows a protein as a band on a membrane.

Turning to `CC(=O)SCCNC(=O)CCNC(=O)[C@H](O)C(C)(C)COP(=O)(O)OP(=O)(O)OC[C@H]1O[C@@H](n2cnc3c(N)ncnc32)[C@H](O)[C@@H]1OP(=O)(O)O` [acetyl-CoA], the acetylation rate in assay [1] (2 μM Gcn5-Ada2, 500 μM acetyl-CoA, n = 3) was found to be 10.35 µM/min.

`CC(C)(COP(=O)(O)OP(=O)(O)OC[C@H]1O[C@@H](n2cnc3c(N)ncnc32)[C@H](O)[C@@H]1OP(=O)(O)O)[C@@H](O)C(=O)NCCC(=O)NCCSC(=O)c1ccccc1` [benzoyl-CoA] yielded a benzoylation rate in assay [1] (2 μM Gcn5-Ada2, 500 μM benzoyl-CoA, single experiment) of 1.19 µM/h.

Usually Kd stands for the equilibrium constant for the complex coming apart. Low values mean tighter binding, high ones weaker binding. Turning to `CC(C)C[C@H](NC(=O)[C@H](CCC(N)=O)NC(=O)[C@H](CCCCN)NC(=O)[C@H](CCCNC(=N)N)NC(=O)[C@@H]1CCCN1C(=O)[C@H](C)NC(=O)[C@H](CCCCNC(=O)c1ccccc1)NC(=O)CNC(=O)CNC(=O)[C@@H](NC(=O)[C@H](CO)NC(=O)[C@H](CCCCN)NC(=O)[C@H](CCCNC(=N)N)NC(=O)[C@H](C)NC(=O)[C@@H](N)[C@@H](C)O)[C@@H](C)O)C(=O)N[C@@H](C)C(=O)N[C@@H](CO)C(=O)N[C@@H](Cc1ccc(O)cc1)C(=O)O` [H3K14bz] (H-TARKSTGGK(Bz)APRKQLASY-OH), the Kd in assay [2] was 88.5 ± 12.4 µM; in assay [3] it was 187 ± 29.8 µM.

On to `CC(C)C[C@H](NC(=O)[C@H](CCC(N)=O)NC(=O)[C@@H](N)CCCCN)C(=O)N[C@@H](C)C(=O)N[C@@H](CO)C(=O)N[C@@H](CCCCN)C(=O)N[C@@H](C)C(=O)N[C@@H](C)C(=O)N[C@@H](CCCNC(=N)N)C(=O)N[C@@H](CCCCNC(=O)c1ccccc1)C(=O)N[C@@H](CO)C(=O)N[C@@H](C)C(=O)N1CCC[C@H]1C(=O)N[C@@H](CO)C(=O)N[C@H](C(=O)NCC(=O)NCC(=O)N[C@H](C(=O)N[C@@H](CCCCN)C(=O)N[C@@H](Cc1ccc(O)cc1)C(=O)O)C(C)C)[C@@H](C)O` [H3K27bz] (H-KQLASKAARK(Bz)SAPSTGGVKY-OH), for which the dissociation constant (Kd) stood at 386 µM in assay [2] and 92.6 ± 5.63 µM in assay [4].

In the case of `O=C([O-])c1ccccc1.[Na+]` [sodium benzoate], the “effect on histone Kbz and Kac signals (western blot)” value in assay [5] is “significantly enhanced the Kbz and Kac signals on yeast histones in a dose-dependent manner”.
